Measured values reported in patent publication US20180289702A1, “LPA LEVEL REDUCTION FOR TREATING CENTRAL NERVOUS SYSTEM DISORDERS” (priority 2015, published 2018).

Legend:
PRG-1R346T+/− animals = assay: PPI in PRG-1R346T+/− knock-in mice; format: in vivo; settings: monoallelic PRG-1R346T+/− animals
Procedure: In order to investigate whether the described human mutation indeed results in a endophenotype for psychiatric disorders, the inventors produced an knock-in mouse line where the PRG-1^R346T mutated gene was introduced in place of the PRG-1 wild-type gene. Since only monoallelic PRG-1^R346T mutation carriers were detected, PRG-1^R346T+/− animals were used for the study, which correspond to the human in-vivo situation.
Animals received a single i.p. injection 3 hours prior to PPI.

mice [1] = assay: food intake after overnight food deprivation; format: in vivo
Description: Metabolic alterations like overnight fasting induce changes in LPA subtype composition (Ino M et al. 2012). This correlates with the increased activity of ATX after overnight food deprivation, the availability of the ATX substrate LPC but also with the substrate preferences of ATX for unsaturated LPCs. In order to understand the cortical effects of altered LPA-composition upon fasting, the inventors analyzed food consumption after overnight food deprivation in control and PF8380-treated animals. […] However, overnight food deprivation was not related to hyperlocomotion since travelled distance in an open field setting was not different between control, overnight food deprived and PF-treated overnight food deprived animals (FIG. 19B).

PRG-1−/− neurons = assay: spontaneous postsynaptic currents (sPSC) with PF8380; format: cell-based, mice; settings: 1 μm
[2] = PF8380 concentration in serum and cerebrospinal fluid by mass spectrometry; format: in vivo, mice
Procedure: Animals were treated using the in-vivo potent autotaxin inhibitor PF 8380 (Gierse et al., 2010). Animals received a single i.p. injection 3 hours prior to PPI.
Nanoscale UPLC separation was performed with a nanoAcquity UPLC system (Waters Corporation) equipped with a PepSwift Monolithic PS-DVB, 200 μm×5 cm analytical column (Thermo Scientific Dionex). For analysis, samples (300 nL) were directly injected onto the analytical column. Mobile phase A was water containing 0.1% v/v formic acid, while mobile phase B was ACN containing 0.1% v/v formic acid. Samples were separated at 55° C. with a gradient of 1-35% mobile phase B over 20 min at a flow rate of 800 nL/min. The column was rinsed for 7 min with 99% mobile phase B, followed by a re-equilibration step at initial conditions resulting in total analysis times of 40 min.
Mass spectrometric analysis of PF-8380 was performed in positive mode ESI using a Synapt G2-S HDMS mass spectrometer (Waters Corporation). Samples were analyzed using a targeted MS-method isolating the singly charged precursor of PF-8380. […] All samples and references were analyzed in three technical replicates.
Raw data were analyzed manually using MassLynx V4.1 Software (Waters Corporation). Extracted ion chromatograms of fragment ions at m/z 301 were used for quantitative analysis calculating the area under the curve. […]

mice [3] = assay: open field locomotion of food deprived animals; format: in vivo; settings: OF 10 min; controls, food deprived controls and food deprived animals treated with PF8380
PRG1−/− mice = assay: Morris water maze; format: in vivo; settings: untreated and PF8380-treated PRG1−/− mice, during training days
Procedure: For MWM the escape latency, swim speed, path length, and trajectory of swimming were recorded for each mouse. First, mice were trained for 5 days in “visible platform” task, than for 6 days in “hidden platform” task (spatial training), followed by a “probe trial”, which was repeated for 4 times. Mice received daily 4 trials for a maximum of 90 s with an intertrial interval of 5 min. The swim velocity (mean and max) and the immobility time (time spend not searching) were measured.

wild type (WT) animals = assay: mEPSC recordings with PF8380, wild type; format: cell-based, mice

concentrations in the serum ([2]; in-vivo application 30 mg/KG/BW): robust concentrations
concentration at 3 h ([2]; mouse, cerebrospinal fluid, ip, 30 mg/KG/BW, single i.p. injection, 3 hours after injection): ≤ 420 nM
SMILES: O=C(CCN1CCN(C(=O)OCc2cc(Cl)cc(Cl)c2)CC1)c1ccc2[nH]c(=O)oc2c1 [PF8380, 4-[3-(2,3-Dihydro-2-oxo-6-benzoxazolyl)-3-oxopropyl]-1-piperazinecarboxylic acid (3,5-dichlorophenyl)methyl ester]
Pre Pulse Inhibition (PPI) (PRG-1R346T+/− animals): rescue the decreased PPI to WT values
food intake (mice [1]; control mice (not food deprived)): does not alter
food intake (mice [1]; overnight food deprived animals, within 60 min): significantly decreased
sPSC amplitude (PRG-1−/− neurons): not affecting
spontaneous postsynaptic currents (sPSC) (PRG-1−/− neurons): significantly reduced
locomotion in the open field, total distance (mice [3]): did not display significant differences
escape latency in the Morris-Water-Maze (PRG1−/− mice): did not change
mEPSC amplitudes (wild type (WT) animals): did not affect
mEPSC frequency (wild type (WT) animals): did not affect
